In US20250140406A1, “CLASSIFYING TUMORS AND PREDICTING RESPONSIVENESS” (Oncocyte Corporation, priority 2022, published 2025):

Experiments:
[1] = system: cancer cell lines classified IM, MSL, M; assay: PRISM screen compound sensitivity correlated with IM, MSL and M subtype of cell lines (101 gene signature); assay type: cell-based; details: for IM Corr test: correlation of PRISM compound sensitivity with IM subtype correlation; for M Corr test: correlation of PRISM compound sensitivity with M subtype correlation; for MSL Corr test: correlation of PRISM compound sensitivity with MSL subtype correlation; for TNBCType train: 101 gene signature
[2] = system: cancer cell lines, DetermaIO classes; assay: Association of PRISM compound sensitivity with DetermaIO (DTIO) cell line classes; assay type: cell-based
[3] = subtype (IM, MSL or M) assigned to the compound by negative correlation of PRISM sensitivity with subtype, training cell set (371 cell lines)
[4] = correlation of PRISM compound sensitivity with DTIO (DetermaIO), test cell set (188 cell lines)
[5] = correlation of PRISM compound sensitivity with DTIO (DetermaIO), training cell set (371 cell lines)
[6] = correlation of PRISM compound sensitivity with DTIO, test cell set
[7] = correlation of PRISM compound sensitivity with DTIO, training cell set
[8] = subtype (IM, MSL or M) with which PRISM compound sensitivity is negatively correlated, training cell set
[9] = association of compound sensitivity with DetermaIO classes, test data set
[10] = association of compound sensitivity with DetermaIO classes, training data set
[11] = subtype (IM, MSL or M) with which compound sensitivity is negatively correlated, training cell set (371 cell lines)

c1ccc2sc(N3CCN(Cc4ccc5c(c4)OCO5)CC3)nc2c1
IM Corr test ([1]; test cell set (188 cell lines)): 0.03417
M Corr test ([1]; test cell set (188 cell lines)): −0.06017
MSL Corr test ([1]; test cell set (188 cell lines)): −0.05087
TNBCType train [1, 3]: MSL
DTIO Corr test [2, 4]: 0.0115
DTIO Corr train [2, 5]: 0.00776

CCCCC/C=C\C=C\CCCCCCCCC(=O)O
IM Corr test ([1]; test cell set): −0.1138
M Corr test ([1]; test cell set): 0.05243
MSL Corr test ([1]; test cell set): 0.00293
DTIO Corr test [2, 6]: −0.07628
DTIO Corr train [2, 7]: −0.1009

CN(N=O)C(=O)N[C@H]1C(O)O[C@H](CO)[C@@H](O)[C@@H]1O (mixture of isomers) [streptozotocin]
IM Corr test ([1]; test cell set): −0.07058
M Corr test ([1]; test cell set): 0.07616
MSL Corr test ([1]; test cell set): −0.07788
TNBCType train [1, 8]: MSL
DTIO Corr test [2, 6]: −0.06131
DTIO Corr train [2, 7]: 0.03601

CCNCCCNCCCCNCCCNCC [1,12-Besm]
IM Corr test ([1]; test cell set (188 cell lines)): −0.00575
M Corr test ([1]; test cell set (188 cell lines)): −0.0837
MSL Corr test ([1]; test cell set (188 cell lines)): −0.1322
DTIO Corr test [2, 6]: 0.02016
DTIO Corr train [2, 7]: 0.07515

C[C@@]1(O)[C@H](O)[C@@H](CO)O[C@H]1n1cnc2c(NC3CCCC3)nc(Cl)nc21 [2′-MeCCPA]
IM Corr test ([1]; test cell set (188 cell lines)): −0.06271
M Corr test ([1]; test cell set (188 cell lines)): 0.03452
MSL Corr test ([1]; test cell set (188 cell lines)): −0.04413
TNBCType train [1, 3]: MSL
DTIO Corr test [2, 4]: −0.0753
DTIO Corr train [2, 5]: −0.01341

Nc1nccc2c1ncn2C1C=C(CO)C(O)C1O (stereo not shown) [3-deazaneplanocin-A]
IM Corr test ([1]; test cell set (188 cell lines)): −0.02722
M Corr test ([1]; test cell set (188 cell lines)): 0.1507
MSL Corr test ([1]; test cell set (188 cell lines)): 0.09034
DTIO Corr test [2, 4]: −0.05245
DTIO Corr train [2, 5]: −0.1309

O=c1[nH]cnc2ccccc12 [4-HQN]
IM Corr test ([1]; test cell set (188 cell lines)): −0.06704
M Corr test ([1]; test cell set (188 cell lines)): 0.04595
MSL Corr test ([1]; test cell set (188 cell lines)): 0.1063
DTIO Corr test [2, 4]: 0.05447
DTIO Corr train [2, 5]: −0.1475

O=S(=O)(O)c1ccc(O)cc1 [4-phenolsulfonic-acid]
IM Corr test ([1]; test cell set): −0.06223
M Corr test ([1]; test cell set): 0.02717
MSL Corr test ([1]; test cell set): 0.006866
DTIO Corr test [2, 6]: −0.03477
DTIO Corr train [2, 7]: −0.1569

O=C(O)c1ccc(N2C(=O)/C(=C\c3ccc(-c4ccc([N+](=O)[O-])cc4)o3)C=C2c2ccccc2)cc1 [4E1RCat]
IM Corr test ([1]; test cell set (188 cell lines)): 0.05564
M Corr test ([1]; test cell set (188 cell lines)): −0.08971
MSL Corr test ([1]; test cell set (188 cell lines)): 0.01051
DTIO Corr test [2, 4]: 0.01627
DTIO Corr train [2, 5]: 0.1551

COc1ccc(C2=N[C@@H](c3ccc(Cl)cc3)[C@@H](c3ccc(Cl)cc3)N2C(=O)N2CCNC(=O)C2)c(OC(C)C)c1 [A12230535]
DTIO Corr test [2, 9]: 0.1503
DTIO Corr train [2, 10]: 0.1606

Cc1nccn1CC1CCc2c(c3ccccc3n2C)C1=O (stereo not shown) [A19736161]
DTIO Corr test [2, 9]: −0.1124
DTIO Corr train [2, 10]: −0.07634

COC(=O)N[C@@H](C)CNc1nccc(-c2cn(C(C)C)nc2-c2cc(Cl)cc(NS(C)(=O)=O)c2F)n1 [A56085258]
DTIO Corr test [2, 9]: 0.1442
DTIO Corr train [2, 10]: 0.09535

Cc1ccc(NC(=O)c2ccc(CN3CC[C@H](N(C)C)C3)c(C(F)(F)F)c2)cc1Nc1nccc(-c2cncnc2)n1 [A75975749]
DTIO Corr test [2, 9]: 0.1658
DTIO Corr train [2, 10]: 0.1191

O=C(c1cc(Cc2n[nH]c(=O)c3ccccc23)ccc1F)N1CCN(C(=O)C2CC2)CC1 [K02113016]
DTIO Corr test [2, 9]: 0.06404
DTIO Corr train [2, 10]: 0.02661

Cc1cc(CN2CCN(c3c(Br)cnc4nc(-c5ccc(N6CCN(C)CC6)cc5)[nH]c34)CC2)no1 [K03289018]
DTIO Corr test [2, 9]: −0.1396
DTIO Corr train [2, 10]: −0.02552

Cc1ccc(NC(=O)c2cccc(C(C)(C)C#N)c2)cc1Nc1ccc2ncn(C)c(=O)c2c1 [K05804044]
DTIO Corr test [2, 9]: 0.3247
DTIO Corr train [2, 10]: 0.1908

CC(C)(C)c1nc(-c2cccc(NS(=O)(=O)c3c(F)cccc3F)c2F)c(-c2ccnc(N)n2)s1 [K09951645]
DTIO Corr test [2, 9]: 0.1439
DTIO Corr train [2, 10]: 0.04313

Cc1cc(C2CCCCC2)n(O)c(=O)c1 [K13044802]
DTIO Corr test [2, 9]: −0.06749
DTIO Corr train [2, 10]: −0.1574

O=Nc1ccc(O)c2ncccc12 [K13169950]
DTIO Corr test [2, 9]: −0.00012
DTIO Corr train [2, 10]: 0.09356

N=C(N)c1ccc(OCCCCCOc2ccc(C(=N)N)cc2)cc1 [K13183738]
DTIO Corr test [2, 9]: 0.14
DTIO Corr train [2, 10]: 0.2157

Cc1occc(=O)c1[O-].Cc1occc(=O)c1[O-].[O]=[V+2] [K16180792]
DTIO Corr test [2, 9]: 0.09031
DTIO Corr train [2, 10]: 0.1485

CS(=O)(=O)CCNCc1ccc(-c2ccc3ncnc(Nc4ccc(OCc5cccc(F)c5)c(Cl)c4)c3c2)o1 [K19687926]
DTIO Corr test [2, 9]: −0.0302
DTIO Corr train [2, 10]: −0.08369

COc1cc2nc(N3CCCN(C)CC3)nc(NC3CCN(Cc4ccccc4)CC3)c2cc1OC [K26818574]
DTIO Corr test [2, 9]: 0.2463
DTIO Corr train [2, 10]: 0.08377

CNC(=O)c1ccccc1Sc1ccc2c(/C=C/c3ccccn3)n[nH]c2c1 [K29905972]
DTIO Corr test [2, 9]: 0.004812
DTIO Corr train [2, 10]: 0.0816

N#Cc1c(Oc2ccc(F)c(NC(=O)Cc3cccc(C(F)(F)F)c3)c2)ccc2nc(NC(=O)C3CC3)sc12 [K31866293]
DTIO Corr test [2, 9]: 0.2089
DTIO Corr train [2, 10]: 0.08489

C=CC(=O)Nc1cc(Nc2nccc(-c3cn(C)c4ccccc34)n2)c(OC)cc1N(C)CCN(C)C [K42805893]
DTIO Corr test [2, 9]: 0.0753
DTIO Corr train [2, 10]: −0.06781

C[C@@H]1COC(Nc2ccc3ncnc(Nc4ccc(OCc5nccs5)c(Cl)c4)c3c2)=N1 [K46386702]
DTIO Corr test [2, 9]: −0.03109
DTIO Corr train [2, 10]: −0.05992

COc1cc2nccc(Oc3ccc(NC(=O)Nc4ccc(F)cc4F)c(F)c3)c2cc1OC [K47150025]
DTIO Corr test [2, 9]: 0.03732
DTIO Corr train [2, 10]: 0.02512

NC(=O)c1cccc2cn(-c3ccc([C@@H]4CCCNC4)cc3)nc12 [K54955827]
DTIO Corr test [2, 9]: −0.03477
DTIO Corr train [2, 10]: 0.03577

COc1cc(N2CCC(N3CCN(C)CC3)CC2)ccc1Nc1ncc(Cl)c(Nc2ccccc2P(C)(C)=O)n1 [K56981171]
DTIO Corr test [2, 9]: 0.04024
DTIO Corr train [2, 10]: −0.1728

OCCn1cc(-c2ccc3c(c2)CC/C3=N\O)c(-c2ccncc2)n1 [K67578145]
DTIO Corr test [2, 9]: 0.1581
DTIO Corr train [2, 10]: 0.1101

O=c1cc(-c2ccccc2)oc2cc(O)c(O)c(O)c12 [K72327355]
DTIO Corr test [2, 9]: −0.04244
DTIO Corr train [2, 10]: −0.1442

Nc1nccc2c1ncn2C1C=C(CO)C(O)C1O (stereo not shown) [K77791657]
DTIO Corr test [2, 9]: −0.05245
DTIO Corr train [2, 10]: −0.1309

CC[C@@]1(O)C(=O)OCc2c1cc1n(c2=O)Cc2cc3c([N+](=O)[O-])cccc3nc2-1 [K79821389]
DTIO Corr test [2, 9]: −0.06417
DTIO Corr train [2, 10]: −0.1178

C=C1/C(=C\C=C2/CCC[C@]3(C)[C@@H]([C@H](C)OCCC(C)(C)O)CC[C@@H]23)C[C@@H](O)C[C@@H]1O [K81332461]
DTIO Corr test [2, 9]: −0.00506
DTIO Corr train [2, 10]: −0.07504

Cn1c(Nc2ccc(C(F)(F)F)cc2)nc2cc(Oc3ccnc(-c4ncc(C(F)(F)F)[nH]4)c3)ccc21 [K93123848]
DTIO Corr test [2, 9]: 0.1916
DTIO Corr train [2, 10]: 0.1011

O=C1[C@H](Cc2ccc(O)cc2)N2C(=O)CCN(C(=O)NCc3ccccc3)[C@H]2CN1Cc1cccc2ccccc12 [K94455792]
DTIO Corr test [2, 9]: 0.1635
DTIO Corr train [2, 10]: 0.1783

Nc1ccc(S(N)(=O)=O)cc1 [sulfanilamide]
TNBCType train [1, 11]: MSL

CC(=O)N1N=C(c2ccc(N)cc2)c2cc3c(cc2C[C@H]1C)OCO3 [talampanel]
TNBCType train [1, 3]: MSL

COc1ccc2[nH]c([S+]([O-])Cc3ncc(C)c(OC)c3C)nc2n1 (stereo not shown) [tenatoprazole]
TNBCType train [1, 11]: MSL

CN(C)C(=S)SC(=S)N(C)C [tetramethylthiuram-monosulfide]
TNBCType train [1, 8]: MSL

O=C(Cn1c(=O)sc2ccc(Cl)cc21)N1CCN(CCO)CC1 [tiaramide]
TNBCType train [1, 8]: MSL

CCCSc1nc(N[C@@H]2C[C@H]2c2ccc(F)c(F)c2)c2nnn([C@@H]3C[C@H](OCCO)[C@@H](O)[C@H]3O)c2n1 [ticagrelor]
TNBCType train [1, 8]: MSL

N#Cc1cc(-c2n[nH]c(-c3ccncc3)n2)ccn1 [topiroxostat]
TNBCType train [1, 3]: MSL

C[C@]12CC[C@H]3[C@@H](CC[C@@]45O[C@@H]4C(O)=C(C#N)C[C@]35C)[C@@H]1CC[C@@H]2O [trilostane]
TNBCType train [1, 11]: MSL

COc1cc2c3cc1Oc1cc(ccc1O)C[C@@H]1c4c(cc(OC)c(O)c4Oc4ccc(cc4)C[C@@H]3N(C)CC2)CC[N+]1(C)C [tubocurarine]
TNBCType train ([1]; subtype (IM, MSL or M) the PRISM compound sensitivity is associated with, training cell set (371 cell lines)): MSL

CC(C)(C)c1ccc(S(=O)(=O)Nc2ccc(Cl)cc2C(=O)c2cc[n+]([O-])cc2)cc1 [vercirnon]
TNBCType train [1, 8]: MSL

COc1ccc(N(C)c2nc(C)nc3ccccc23)cc1 [verubulin]
TNBCType train [1, 8]: MSL

CC[C@]1(O)C[C@@H]2CN(CCc3c([nH]c4ccccc34)[C@@](C(=O)OC)(c3cc4c(cc3OC)N(C)[C@H]3[C@@](O)(C(=O)OC)[C@H](OC(C)=O)[C@]5(CC)C=CCN6CC[C@]43[C@@H]65)C2)C1 [vinblastine]
TNBCType train [1, 11]: MSL

CC[C@]1(O)C[C@@H]2CN(CCc3c([nH]c4ccccc34)[C@@](C(=O)OC)(c3cc4c(cc3OC)N(C)[C@H]3[C@@](O)(C(N)=O)[C@H](O)[C@]5(CC)C=CCN6CC[C@]43[C@@H]65)C2)C1 [vindesine]
TNBCType train [1, 3]: MSL

CC(c1cc2ccccc2s1)N(O)C(N)=O (stereo not shown) [zileuton]
TNBCType train [1, 11]: MSL
